The values that follow are results of earlier work, collected in US6949582B1, “Method of relieving analgesia and reducing inflamation using a cannabinoid delivery topical liniment” (priority 1999, dated 2005).

Data set [1] has as its system peripheral CB1-like and CB2-like receptors. Conditions: in vivo.
The test system of the next data set is CB2. Conditions: by down-modulating mast cell formation after injury.
The subject of another data set is cytokines such as TNFα. Conditions: in vivo.
The conditions of data set [2]: live rats, carriers PEG, Transcutol, PG:EtOH 7:3.
The conditions of data set [3]: in vivo.
In data set [4] the test system is interleukin, TNF, cytokine-induced genes. The note with it: carrageenan-induced edema, up-regulation of cytokine-induced genes.
The conditions of data set [5]: mice, given orally.
For data set [6], the system named is human rheumatoid synovial cells.
The test system of data set [7] is prostaglandin biosynthesis.
In data set [8] the test system is calcitonin gene-related peptide release. The note with it: isolated hindpaw skin.
The target in another data set is T1, peripheral CB1 receptor (Rattus norvegicus, UniProt P20272).
T1 construct: host or cells: rat, peripheral tissue (hindpaw) in vivo

The conditions of data set [9]: rat hind-paw edema from carrageenan or PGE-1.
[10] abbreviates: peripheral, but not systemic, administration of 0.01 ng.

T1 sequence (P20272 whole entry): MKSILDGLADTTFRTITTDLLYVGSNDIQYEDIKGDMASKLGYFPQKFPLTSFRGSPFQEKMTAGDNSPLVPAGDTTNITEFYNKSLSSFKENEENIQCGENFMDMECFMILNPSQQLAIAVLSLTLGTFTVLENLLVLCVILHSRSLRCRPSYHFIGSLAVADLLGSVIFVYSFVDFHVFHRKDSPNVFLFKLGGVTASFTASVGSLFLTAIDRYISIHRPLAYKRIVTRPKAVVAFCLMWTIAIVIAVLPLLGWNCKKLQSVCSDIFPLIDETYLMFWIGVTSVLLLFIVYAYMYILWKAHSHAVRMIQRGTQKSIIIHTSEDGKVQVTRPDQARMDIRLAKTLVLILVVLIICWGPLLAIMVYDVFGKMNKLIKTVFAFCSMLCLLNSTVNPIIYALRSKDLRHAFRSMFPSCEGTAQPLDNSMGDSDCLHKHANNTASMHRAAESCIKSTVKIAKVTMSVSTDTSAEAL

For `CCCCCCCCCCCCCCCC(=O)NCCO` [Palmitoylethanolamide, palmitylethanolamide], in data set [1], the “pain behavior produced by chemical damage to cutaneous tissue” value (shortened to “pain behavior produced”) was “exerts a similar effect”. Also, the “mast-cell activation and inflammatory responses” value in the data set on mast-cell activation was “inhibits mast-cell activation and reduces inflammatory responses”. The “carageenan-induced mechanical hyperalgesia and edema” value in the data set on CB2 was “attenuates”. As for `CCCCCCC(C)(C)c1cc(O)c2c(c1)OC(C)(C)[C@H]1CC=C(CO)C[C@H]21` [HU-211], in the data set with cytokines such as TNFα, the “inflammation caused by mobilization of cytokines such as TNFα” value is recorded as “supress inflammation”. `CCCCCc1cc(O)c2c(c1)OC(C)(C)[C@@H]1CC=C(C)C[C@@H]21` [Delta-8 THC]: the “skin penetration by carrier” value in data set [2] (after 2 hrs) is reported as “highest skin penetration of THC was observed from the Transcutol”. Besides, the “concentration in skin layers by carrier” value in data set [2] (after 24 hours) is reported as “the Transcutol system delivered the highest THC concentration to the various layers of the skin”. `C=C(C)[C@@H]1CCC(C)=C[C@H]1c1c(O)cc(CCCCC)cc1O` [cannabidiol]: the “neuroprotective properties compared with other antioxidants” value in the data set on cell culture model was “matched or surpassed other antioxidants”. The “reduction of inflammation compared with aspirin” value in data set [3] is “more effective than aspirin”.

For the molecule `O=c1cc(-c2ccc(O)cc2)oc2cc(O)cc(O)c12` [Apigenin], in data set [4], the anti-inflammatory actions entry is reported as “important anti-inflammatory actions”. As to `CCCCCCC(C)(C)c1cc(O)c2c(c1)OC(C)(C)[C@@H]1CC=C(C(=O)O)C[C@@H]21`, the “acute and chronic inflammatory changes” value in data set [5] is “supresses acute and chronic inflammatory changes”. Take `COc1cc(-c2cc(=O)c3c(O)c(CC=C(C)C)c(O)cc3o2)ccc1O` [Cannflavin B]: the “potency of inhibition of prostaglandin E-2 production relative to aspirin” value in data set [6] is reported as 30 times. On to SR144528, for which the “pain behavior produced” value in data set [1] was “prolong and enhance the pain behavior”.

`CCCCCc1cc(O)c2c(c1)OC(C)(C)[C@@H]1CCC(C)=C[C@@H]21` [delta-9-tetrahydrocannabinol]: the “analgesic effects compared with codeine” value (double blind controlled cross over study) is “analgesic effects equivalent to codeine”. Further, the analgesia result (patients with cancer pain, second study) was “significant analgesia”. For `COc1cc(-c2cc(=O)c3c(O)c(C/C=C(\C)CCC=C(C)C)c(O)cc3o2)ccc1O` [Cannflavin A], the “potency of inhibition of prostaglandin E-2 production relative to aspirin” value in data set [6] is 30 times. Regarding `C=CCc1ccc(O)c(OC)c1` [eugenol], the prostaglandin inhibition entry in data set [7] is “potent”. With `Cc1c(C(=O)NN2CCCCC2)nn(-c2ccc(Cl)cc2Cl)c1-c1ccc(Cl)cc1` [SR141716A], in data set [1], the “pain behavior produced” value is “prolong and enhance the pain behavior”.

Regarding `CCCCC/C=C\C/C=C\C/C=C\C/C=C\CCCC(=O)NCCO` [anandamide, arachidonyl-ethanolamide], the “pain behavior produced” value in [1] is on record as “attenuates the pain behavior”. Moreover, the “capsaicin-evoked release of calcitonin gene-related peptide” value in data set [8] is reported as “inhibited”. The “hyperalgesia after its development” value on peripheral CB1 receptor (peripheral administration, reversed by CB1 antagonist SR 141716A) is “attenuated hyperalgesia”. On peripheral CB1 receptor (setting [10]), the edema result is given as “inhibited edema” and the induction of hyperalgesia entry is on record as “inhibited the induction of hyperalgesia”. On to `CC1=CCC2CC1C2(C)C` (stereo not drawn) [Alpha-pinene], for which the anti-inflammatory activity entry in data set [9] is “demonstrate anti-inflammatory activity”. As to caryophyllene, the anti-inflammatory activity result in [9] was “demonstrate anti-inflammatory activity”.
